Experimental data reported in ChEMBL document CHEMBL1629707, “Naphthalimide based novel organoselenocyanates: finding less toxic forms of selenium that would retain protective efficacy” (Bioorg Med Chem Lett, 2010).

Key:
Mus musculus [1] = assay: Increase of GST level in Swiss albino mouse liver assessed as CDNB-GSH conjugate per mg of protein at 3 mg/kg, po after 30 days (reference value: 95.66+/-4.0 nmol/min); type: functional
Mus musculus [2] = assay: Increase of GSH level in Swiss albino mouse liver assessed per mg of protein at 3 mg/kg, po after 30 days (reference value: 46.87+/-1.88 nmol); type: functional
Mus musculus [3] = assay: Increase of SOD level in Swiss albino mouse liver assessed per mg of protein at 3 mg/kg, po after 30 days (reference value: 250.16+/-7.46 U); type: functional
Mus musculus [4] = assay: Increase of CAT level in Swiss albino mouse liver assessed per mg of protein at 3 mg/kg, po after 30 days (reference value: 41.66+/-1.33 U); type: functional
Mus musculus [5] = assay: Increase of Gpx level in Swiss albino mouse liver assessed as NADPH oxidation per mg of protein at 3 mg/kg, po after 30 days (reference value: 0.646+/-0.030 umol); type: functional
Mus musculus [6] = assay: Increase of TRxR level in Swiss albino mouse liver assessed per mg of protein at 3 mg/kg, po after 30 days (reference value: 3.20+/-0.134 U); type: functional
[7] = Toxicity in po dosed Swiss albino mouse; type: organism-based; settings: in vivo
Mus musculus [8] = assay: Toxicity in Swiss albino mouse assessed as loss of body weight at 3 mg/kg, po administered for 30 days; type: organism-based; design: dose 3 mg/kg, route oral; settings: in vivo, 720 h
Mus musculus [9] = assay: Toxicity in Swiss albino mouse assessed as decrease in final body weight at 1.2 mg/kg, po administered for 30 days; type: organism-based; design: dose 1.2 mg/kg, route oral; settings: in vivo, 720 h
Mus musculus [10] = assay: Toxicity in Swiss albino mouse assessed as hemoglobin level at 3 mg/kg, po after 30 days (reference value: 12.56+/-0.43 gm/dL); type: organism-based; design: dose 3 mg/kg, route oral; settings: in vivo, 720 h
Mus musculus [11] = assay: Hepatotoxicity in Swiss albino mouse assessed as TBARS production per mg of protein at 3 mg/kg, po after 30 days (reference value: 0.26+/-0.02 nmol); type: toxicity, organism-based; design: dose 3 mg/kg, route oral; settings: in vivo, 720 h
Mus musculus [12] = assay: Hepatotoxicity in Swiss albino mouse assessed as plasma ALT level at 3 mg/kg, po after 30 days (reference value: 66.00+/-4.18 U/mL); type: toxicity, organism-based; design: dose 3 mg/kg, route oral; settings: in vivo, 720 h
Mus musculus [13] = assay: Hepatotoxicity in Swiss albino mouse assessed as plasma AST level at 3 mg/kg, po after 30 days (reference value: 179.00+/-4.18 U/mL); type: toxicity, organism-based; design: dose 3 mg/kg, route oral; settings: in vivo, 720 h
Mus musculus [14] = assay: Nephrotoxicity in Swiss albino mouse assessed as BUN level at 3 mg/kg, po after 30 days (reference value: 21.57+/-0.92 mg/dL); type: toxicity, organism-based; design: dose 3 mg/kg, route oral; settings: in vivo, 720 h
Mus musculus [15] = assay: Nephrotoxicity in Swiss albino mouse assessed as serum creatinine level at 3 mg/kg, po after 30 days (reference value: 9.40+/-0.48 mg/dL); type: toxicity, organism-based; design: dose 3 mg/kg, route oral; settings: in vivo, 720 h
[16] = Induction of chromosomal aberration in Swiss albino mouse bone marrow cell at 3 mg/kg, po after 30 days (reference value: 14.88+/-0.99 %); type: organism-based; design: dose 3 mg/kg, route oral; settings: in vivo, 720 h
Mus musculus [17] = assay: Nephrotoxicity in Swiss albino mouse assessed as inflammation at 3 mg/kg, po after 30 days by histopathology analysis; type: toxicity, organism-based; design: dose 3 mg/kg, route oral; settings: in vivo, 720 h
Mus musculus [18] = assay: Nephrotoxicity in Swiss albino mouse assessed as lesion at 3 mg/kg, po after 30 days by histopathology analysis; type: toxicity, organism-based; design: dose 3 mg/kg, route oral; settings: in vivo, 720 h
Mus musculus [19] = assay: Increase of Gpx level in Swiss albino mouse liver assessed as NADPH oxidation per mg of protein at 3 mg/kg, po after 30 days relative to control; type: functional
Mus musculus [20] = assay: Increase of TRxR level in Swiss albino mouse liver assessed per mg of protein at 3 mg/kg, po after 30 days relative to control; type: functional
Mus musculus [21] = assay: Hepatotoxicity in Swiss albino mouse assessed as necrosis at 3 mg/kg, po after 30 days by histopathology analysis; type: toxicity, organism-based; design: dose 3 mg/kg, route oral; settings: in vivo, 720 h
Mus musculus [22] = assay: Hepatotoxicity in Swiss albino mouse assessed as inflammation at 3 mg/kg, po after 30 days by histopathology analysis; type: toxicity, organism-based; design: dose 3 mg/kg, route oral; settings: in vivo, 720 h
Mus musculus [23] = assay: Hepatotoxicity in Swiss albino mouse assessed as lesion at 3 mg/kg, po after 30 days by histopathology analysis; type: toxicity, organism-based; design: dose 3 mg/kg, route oral; settings: in vivo, 720 h
Mus musculus [24] = assay: Nephrotoxicity in Swiss albino mouse assessed as necrosis at 3 mg/kg, po after 30 days by histopathology analysis; type: toxicity, organism-based; design: dose 3 mg/kg, route oral; settings: in vivo, 720 h
Mus musculus [25] = assay: Hepatotoxicity in Swiss albino mouse assessed as infiltration of mononuclear cells at 1.2 mg/kg after 30 days by histopathology analysis; type: toxicity, organism-based; design: dose 1.2 mg/kg; settings: in vivo, 720 h
Mus musculus [26] = assay: Nephrotoxicity in Swiss albino mouse assessed as infiltration of mononuclear cells at 1.2 mg/kg after 30 days by histopathology analysis; type: toxicity, organism-based; design: dose 1.2 mg/kg; settings: in vivo, 720 h
Mus musculus [27] = assay: Increase of GSH level in Swiss albino mouse liver assessed per mg of protein at 1.2 mg/kg, po after 30 days (reference value: 46.87+/-1.88 nmol); type: functional
Mus musculus [28] = assay: Increase of GST level in Swiss albino mouse liver assessed as CDNB-GSH conjugate per mg of protein at 1.2 mg/kg, po after 30 days (reference value: 95.66+/-4.0 nmol/min); type: functional
Mus musculus [29] = assay: Toxicity in Swiss albino mouse assessed as hemoglobin level at 1.2 mg/kg, po after 30 days (reference value: 12.56+/-0.43 gm/dL); type: organism-based; design: dose 1.2 mg/kg, route oral; settings: in vivo, 720 h
Mus musculus [30] = assay: Hepatotoxicity in Swiss albino mouse assessed as TBARS production per mg of protein at 1.2 mg/kg, po after 30 days (reference value: 0.26+/-0.02 nmol); type: toxicity, organism-based; design: dose 1.2 mg/kg, route oral; settings: in vivo, 720 h
Mus musculus [31] = assay: Hepatotoxicity in Swiss albino mouse assessed as plasma ALT level at 1.2 mg/kg, po after 30 days (reference value: 66.00+/-4.18 U/mL); type: toxicity, organism-based; design: dose 1.2 mg/kg, route oral; settings: in vivo, 720 h
Mus musculus [32] = assay: Hepatotoxicity in Swiss albino mouse assessed as plasma AST level at 1.2 mg/kg, po after 30 days (reference value: 179.00+/-4.18 U/mL); type: toxicity, organism-based; design: dose 1.2 mg/kg, route oral; settings: in vivo, 720 h
Mus musculus [33] = assay: Nephrotoxicity in Swiss albino mouse assessed as BUN level at 1.2 mg/kg, po after 30 days (reference value: 21.57+/-0.92 mg/dL); type: toxicity, organism-based; design: dose 1.2 mg/kg, route oral; settings: in vivo, 720 h
Mus musculus [34] = assay: Nephrotoxicity in Swiss albino mouse assessed as serum creatinine level at 1.2 mg/kg, po after 30 days (reference value: 9.40+/-0.48 mg/dL); type: toxicity, organism-based; design: dose 1.2 mg/kg, route oral; settings: in vivo, 720 h
[35] = Induction of chromosomal aberration in Swiss albino mouse bone marrow cell at 1.2 mg/kg, po after 30 days (reference value: 14.88+/-0.99 %); type: organism-based; design: dose 1.2 mg/kg, route oral; settings: in vivo, 720 h
Mus musculus [36] = assay: Increase of SOD level in Swiss albino mouse liver assessed per mg of protein at 1.2 mg/kg, po after 30 days (reference value: 250.16+/-7.46 U); type: functional
Mus musculus [37] = assay: Increase of CAT level in Swiss albino mouse liver assessed per mg of protein at 1.2 mg/kg, po after 30 days (reference value: 41.66+/-1.33 U); type: functional
Mus musculus [38] = assay: Increase of Gpx level in Swiss albino mouse liver assessed as NADPH oxidation per mg of protein at 1.2 mg/kg, po after 30 days (reference value: 0.646+/-0.030 umol); type: functional
Mus musculus [39] = assay: Increase of TRxR level in Swiss albino mouse liver assessed per mg of protein at 1.2 mg/kg, po after 30 days (reference value: 3.20+/-0.134 U); type: functional

| Structure (SMILES) | Activity (Mus musculus [1]) [nM] | Activity (Mus musculus [2]) [nM] | Activity (Mus musculus [3]) [U] | Activity (Mus musculus [4]) [U] | Activity (Mus musculus [5]) [U] | Activity (Mus musculus [6]) [U] | LD50 [7] [mg/kg] | Activity (Mus musculus [8]) | Activity (Mus musculus [9]) | Activity (Mus musculus [10]) [g/dL] | Activity (Mus musculus [11]) [nM] | Activity (Mus musculus [12]) [U/ml] | Activity (Mus musculus [13]) [U/ml] | Activity (Mus musculus [14]) [mg/dL] | Activity (Mus musculus [15]) [mg/dL] | Activity [16] [%] | also measured |
| --- | --- | --- | --- | --- | --- | --- | --- | --- | --- | --- | --- | --- | --- | --- | --- | --- | --- |
| N#C[Se]CCCCCN1C(=O)c2cccc3cccc(c23)C1=O | 104.41 | 50.94 | 258.56 | 45.48 | 0.864 | 4.61 | > 1000 | Non-toxic | Toxic | 13.08 | 0.24 | 61 | 160 | 160 | 6.4 | 13.39 |  |
| N#C[Se]CCCCCN1C(=O)c2cccc3c(Cl)ccc(c23)C1=O | 106.58 | 59.34 | 268.71 | 46.6 | 0.995 | 4.21 | > 1000 | Non-toxic | Toxic | 12.86 | 0.26 | 64 | 142 | 142 | 7.45 | 13.97 |  |
| N#C[Se]CCCCCN1C(=O)c2cccc3cc([N+](=O)[O-])cc(c23)C1=O | 97.29 | 55.82 | 267.68 | 44.06 | 0.938 | 4.15 | > 1000 | Non-toxic | Toxic | 12.76 | 0.25 | 62 | 154 |  | 7.86 | 13.85 |  |
| N#C[Se]CCCCCN1C(=O)c2cccc3c(N)ccc(c23)C1=O | 116.19 | 60.4 | 296.03 | 53.04 |  |  | > 1000 | Non-toxic | Toxic | 13.24 | 0.22 | 59 | 148 | 148 | 7.13 | 12.7 | Activity (Mus musculus [17]): Non-toxic; Activity (Mus musculus [18]): Non-toxic; Activity (Mus musculus [19]): 63.77%; Activity (Mus musculus [20]): 53.43%; Activity (Mus musculus [21]): Non-toxic; Activity (Mus musculus [22]): Non-toxic; Activity (Mus musculus [23]): Non-toxic; Activity (Mus musculus [24]): Non-toxic |
| O=[Se]([O-])[O-].[Na+].[Na+] [SODIUM SELENITE] |  |  |  |  |  |  | 25 |  |  |  |  |  |  |  |  |  | Activity (Mus musculus [25]): Toxic; Activity (Mus musculus [26]): Toxic; Activity (Mus musculus [27]): 44.84 nM; Activity (Mus musculus [28]): 85.31 nM; Activity (Mus musculus [29]): 11.28 g/dL; Activity (Mus musculus [30]): 0.3 nM; Activity (Mus musculus [31]): 72 U/ml; Activity (Mus musculus [32]): 191 U/ml; Activity (Mus musculus [33]): 22.6 mg/dL; Activity (Mus musculus [34]): 8.47 mg/dL; Activity [35]: 16.4%; Activity (Mus musculus [36]): 236.98 U; Activity (Mus musculus [37]): 36.6 U; Activity (Mus musculus [38]): 0.692 U; Activity (Mus musculus [39]): 3.75 U |
